Laboratory results: US10543227B2, “Hair growth composition” (RIKEN, priority 2015, dated 2020)
Values joined by “and” are separate entries in the source; they are usually repeats but may differ in a detail not shown here. Identical values can stand only once. Like-named read-outs stand apart in the source and are kept apart here.

Columns and labels:
[1] = Average body surface temperature by infrared thermography (Example 2); details: Sodium thiosulfate 10% (w/v)
Description: (§1) Each test drug was applied to hair-shaved back sites (in an amount of 200 μL per site) of 5-6 animals per group, daily at a frequency of once a day. At 10 minutes and 30 minutes after the application on Day 20, average body surface temperature (° C.) was measured. […] Body surface temperature (° C.) was measured by photographing a hair-shaved site and its periphery using an infrared thermography camera (Thermoshot F30S (NEC/Avio, Tokyo, Japan)). The average body surface temperature per area was calculated using InfRec Analyzer NS9500 Standard (NEC/Avio, Tokyo, Japan).

[2] = tested on: hair-shaved back sites of C3H/HeN mice; assay: Telogen phase model, Test 2: hair growth at hair-shaved back sites; type: in vivo
Description: (§2) C3H/HeN mice (Charles River Japan (Kanagawa, Japan)) of 6 weeks old, the hair cycle of which repeatedly proceeds anagen phase, catagen phase and telogen phase in this order, were raised for a week for acclimatization. At the age of 7 weeks (the telogen phase is started at the age), hairs on the back were shaved off by an electric clipper and a shaver. After the mice were raised overnight, application of a test solution (200 μL per site) to the hair-shaved site was initiated.
(§3) In both of Test 1 and Test 2, each test solution was applied to the hair-shaved back sites of 5-12 mice per group, daily at a frequency of once a day. […] Alternatively, where needed, the hair growth effects were evaluated by calculating % hair-growth areas.
(§4) The evaluation results of Test 1 and Test 2 are shown in Table 1 and Table 2, respectively. Evaluation results were shown by scores based on the following criteria: when the hair-growth area calculated was 0% or more and less than 10%, score 1 was given; when the hair-growth area calculated was 10% or more and less than 25%, score 2 was given, when the hair-growth area calculated was 25% or more and less than 50%, score 3 was given; when the hair-growth area calculated was 50% or more and less than 75%, score 4 was given; and when the hair-growth area calculated was 75% or more, score 5 was given.

[3] = Description: as §1
These animals were subjected to drawing blood from the hearts on the final week for biochemical examination. Each blood was allowed to stand still on ice for 30 minutes and centrifuged twice at 10,000 rpm for 15 minutes (at 4° C.). The supernatants (i.e., sera) were transferred to new containers and stored in a freezer (at −80° C.). The sera were analyzed using a clinical chemistry analyzer for animal (FUJI DRI-CHEM 3500V) and special slides to obtain the values of [GPT (glutamate-pyruvate transaminase), GOT (glutamate oxaloacetate transaminase), GGT (γ-glutamyl transferase), LDH (lactate dehydrogenase), CHE (cholinesterase), CPK (creatine phosphokinase), ALB (albumin), TP (total protein), TCHO (total cholesterol), and TG (triglyceride)].

[4] = tested on: hair-shaved back sites of C3H/HeN mice; assay: Telogen phase model, Test 1: hair growth at hair-shaved back sites; type: in vivo
Description: as §2, §3, §4

[5] = tested on: mouse skin tissue; details: positive control, 5% MXD
Description: Specifically, the skin tissue was taken and fixed in 10% neutral buffered formalin. Paraffin sections thereof were prepared, stained with HE, and microscopically observed.

[6] = tested on: mouse skin tissue; assay: Histological examination of skin tissue, anagen phase model (Example 4); type: in vivo, C3H/HeN mice; details: Positive control 5% MXD; after 24 days application; n = 8
Description: Paraffin sections were prepared, stained with hematoxylin/eosin (HE), and microscopically observed. Hair root density and anagen phase/telogen phase ratio were evaluated.

[7] = Sodium thiosulfate 10% (w/v), Day 69 after initiation of application
[8] = Sodium thiosulfate 10%, serum, final week, N=5
[9] = Minoxidil 1% (w/v), Day 54 after initiation of application
[10] = Minoxidil 1%, serum, final week, N=5

O=S([O-])([O-])=S.[Na+].[Na+] [Sodium thiosulfate, sodium thiosulfate]
average body surface temperature ([1]; 10 minutes after the application on Day 20): 36.6 °C and 36.3 °C and 35.8 °C and 35.5 °C and 36.7 °C | average body surface temperature ([1]; 30 minutes after the application on Day 20): 37.1 °C and 36.6 °C and 37 °C and 37.2 °C | hair growth score ([2]; Sodium thiosulfate 10% (w/v), Day 27 after initiation of application): 0 | hair growth score ([2]; Sodium thiosulfate 10% (w/v), Day 34 after initiation of application): 0 | hair growth score [2, 7]: 2 (when the hair-growth area calculated was 10% or more and less than 25%, score 2 was given) and 4 (when the hair-growth area calculated was 50% or more and less than 75%, score 4 was given) and 3 (when the hair-growth area calculated was 25% or more and less than 50%, score 3 was given) | hair growth score ([2]; Sodium thiosulfate 10% (w/v), Day 90 after initiation of application): 3 (when the hair-growth area calculated was 25% or more and less than 50%, score 3 was given) and 5 (when the hair-growth area calculated was 75% or more, score 5 was given) and 4 (when the hair-growth area calculated was 50% or more and less than 75%, score 4 was given) | ALB [3, 8]: 2.2 ± 0.1 g/dL | CHE [3, 8]: 19.8 ± 3.1 U/l | CPK [3, 8]: 608.4 ± 642.5 U/l | GGT [3, 8]: 1.0 ± 0.0 U/l | GOT (AST) [3, 8]: 83.2 ± 46.3 U/l | GPT (ALT) [3, 8]: 20.8 ± 2.3 U/l | LDH [3, 8]: 277.4 ± 142.6 U/l | TCHO [3, 8]: 155.0 ± 10.1 mg/dL | TG [3, 8]: 296.8 ± 95.5 mg/dL | TP [3, 8]: 4.8 ± 0.3 g/dL | hair growth score ([4]; Sodium thiosulfate 1% (w/v), Day 26 after initiation of application): 0 | hair growth score ([4]; Sodium thiosulfate 1% (w/v), Day 32 after initiation of application): 0 | hair growth score ([4]; Sodium thiosulfate 1% (w/v), Day 40 after initiation of application): 0 | hair growth score ([4]; Sodium thiosulfate 1% (w/v), Day 47 after initiation of application): 0 | hair growth score ([4]; Sodium thiosulfate 1% (w/v), Day 54 after initiation of application): 0 | hair growth score ([4]; Sodium thiosulfate 1% (w/v), Day 62 after initiation of application): 0 | hair growth score ([4]; Sodium thiosulfate 1% (w/v), Day 69 after initiation of application): 0 | hair growth score ([4]; Sodium thiosulfate 1% (w/v), Day 76 after initiation of application): 0 | hair growth score ([4]; Sodium thiosulfate 1% (w/v), Day 83 after initiation of application): 0 | hair growth score ([4]; Sodium thiosulfate 1% (w/v), Day 90 after initiation of application): 0 | hair growth score ([4]; Sodium thiosulfate 2% (w/v), Day 26 after initiation of application): 0 | hair growth score ([4]; Sodium thiosulfate 2% (w/v), Day 32 after initiation of application): 0 | hair growth score ([4]; Sodium thiosulfate 2% (w/v), Day 40 after initiation of application): 0 | hair growth score ([4]; Sodium thiosulfate 2% (w/v), Day 47 after initiation of application): 0 | hair growth score ([4]; Sodium thiosulfate 2% (w/v), Day 54 after initiation of application): 0 | hair growth score ([4]; Sodium thiosulfate 2% (w/v), Day 62 after initiation of application): 0 | hair growth score ([4]; Sodium thiosulfate 2% (w/v), Day 69 after initiation of application): 0 | hair growth score ([4]; Sodium thiosulfate 2% (w/v), Day 76 after initiation of application): 0 | hair growth score ([4]; Sodium thiosulfate 2% (w/v), Day 83 after initiation of application): 0 | hair growth score ([4]; Sodium thiosulfate 2% (w/v), Day 90 after initiation of application): 0 | hair growth score ([4]; Sodium thiosulfate 2% (w/v), Day 97 after initiation of application): 0 | hair growth score ([4]; Sodium thiosulfate 4% (w/v), Day 26 after initiation of application): 0 | hair growth score ([4]; Sodium thiosulfate 4% (w/v), Day 32 after initiation of application): 0 | hair growth score ([4]; Sodium thiosulfate 4% (w/v), Day 40 after initiation of application): 0 | hair growth score ([4]; Sodium thiosulfate 4% (w/v), Day 47 after initiation of application): 0 | hair growth score ([4]; Sodium thiosulfate 4% (w/v), Day 54 after initiation of application): 0 | hair growth score ([4]; Sodium thiosulfate 10% (w/v), Day 26 after initiation of application): 0 | hair growth score ([4]; Sodium thiosulfate 10% (w/v), Day 32 after initiation of application): 0 | hair growth score ([4]; Sodium thiosulfate 10% (w/v), Day 40 after initiation of application): 0 | hair growth score [4, 7]: 2 (when the hair-growth area calculated was 10% or more and less than 25%, score 2 was given) and 3 (when the hair-growth area calculated was 25% or more and less than 50%, score 3 was given) | time point when hairs start growing (Kaplan-Meier curves) ([4]; as the concentration of sodium thiosulfate increases, Tests 1 and 2, FIGS. 2 and 3): new hairs tend to start growing from the earlier stage | start of new hair growth and hair-growth area compared to the negative control ([4]; sodium thiosulfate alone, 4% (w/v) or more): started growing at early stage after the application

Nc1cc(N2CCCCC2)nc(N)[n+]1[O-] [Minoxidil, minoxidil, reference compound]
tissue abnormality (HE-stained skin sections) [5]: no individuals having tissue abnormality were found | Anagen phase/telogen phase [6]: 0.11 ± 0.05 | Hair root density [6]: 2.04 ± 0.32 /mm | Subcutaneous tissue [6]: 38.4 ± 9 µm | hair growth score ([2]; Minoxidil 1% (w/v), Day 27 after initiation of application): 0 | hair growth score ([2]; Minoxidil 1% (w/v), Day 34 after initiation of application): 0 | hair growth score ([2]; Minoxidil 1% (w/v), Day 41 after initiation of application): 0 | hair growth score ([2]; Minoxidil 1% (w/v), Day 48 after initiation of application): 0 | hair growth score [2, 9]: 0 | hair growth score ([2]; Minoxidil 1% (w/v), Day 61 after initiation of application): 0 | CHE [3, 10]: 16.6 ± 1.5 U/l | TG [3, 10]: 294.0 ± 44.1 mg/dL | TP [3, 10]: 4.7 ± 0.5 g/dL | ALB ([3]; mouse, in vivo): 2.2 ± 0.1 g/dL | CPK ([3]; mouse, in vivo): 321.6 ± 231.5 U/l | GGT ([3]; mouse, in vivo): 1.0 ± 0.0 U/l | GOT (AST) ([3]; mouse, in vivo): 66.8 ± 40.2 U/l | LDH ([3]; mouse, in vivo): 237.8 ± 101.6 U/l | TCHO ([3]; mouse, in vivo): 167.2 ± 19.3 mg/dL | hair growth score ([4]; Minoxidil 1% (w/v), Day 26 after initiation of application): 0 | hair growth score ([4]; Minoxidil 1% (w/v), Day 32 after initiation of application): 0 | hair growth score ([4]; Minoxidil 1% (w/v), Day 40 after initiation of application): 0 | hair growth score ([4]; Minoxidil 1% (w/v), Day 47 after initiation of application): 0 | hair growth score [4, 9]: 0 | hair growth score ([4]; Minoxidil 1% (w/v), Day 62 after initiation of application): 0 | hair growth score ([4]; Minoxidil 1% (w/v), Day 69 after initiation of application): 0 | hair growth score ([4]; Minoxidil 1% (w/v), Day 76 after initiation of application): 0 | hair growth score ([4]; Minoxidil 1% (w/v), Day 83 after initiation of application): 0 | hair growth score ([4]; Minoxidil 1% (w/v), Day 90 after initiation of application): 0
